The source of these data is US20230313217A1, “CHLOROPLAST TARGETING PEPTIDES AND CONJUGATES AND COMPOSITIONS THEREOF” (The Regents of the University of California, priority 2021, published 2023).

For data set [1], the system named is chloroplasts in leaf mesophyll cells. The data set can be described thus: Chemical cargo (FDA) delivery to chloroplasts, confocal colocalization. It counts as in vivo, Arabidopsis thaliana. To be noted: FDA alone. The source says:
Chemical Cargo and Plasmid DNA and Delivery to Chloroplasts Mediated by Targeted Nanomaterials. To assess the delivery of chemical cargoes to chloroplasts mediated by TP-β-CD nanocarriers, we loaded β-cyclodextrins with the fluorescent dye […] (FDA) (FIG. 4A). We imaged the localization of FDA within leaf mesophyll tissues by confocal microscopy and quantified the localization of this fluorescence dye with chloroplasts autofluorescence (FIG. 4B,C). Plant leaves treated with TP-β-CD-FDA or TP-β-CD (Table 1) were analyzed for the fluorescence emission crosstalk with confocal microscopy under laser excitation with a 488 nm laser (FIG. 13A). […] When added together with CDs or β-CDs, the FDA was observed both in the intracellular and extracellular space. […] In contrast, when FDA was delivered by TP-β-CDs, most of the FDA fluorescence signal was detected inside leaf mesophyll cells and highly colocalized with chloroplasts (70.0±9.5%) (FIG. 4B). […] Although targeted TP-β-CDs improved the delivery of FDA to chloroplasts in leaf mesophyll cells, the FDA fluorescence signal was localized throughout the entire leaf mesophyll cells. […] Colocalization rates of FDA fluorescence with chloroplasts were determined using Mander's coefficient analysis (COLOC2, ImageJ). […]
Confocal Fluorescence Microscopy. […]

Data set [2] is described as follows: ζ potential of carbon nanostructures (Zetasizer). The note with it: neutral charge. The class given is physicochemical. The protocol: The resulting PEI-SWCNT suspension was characterized by measuring the absorbance spectra on a UV-vis absorbance spectrophotometer (UV-2600, Shimadzu). The quality of the SWCNT suspension was determined by analyzing absorbance peaks at 632 nm. This measurement was performed with triplicates. The concentration of the PEI-SWCNT was determined spectrophotometrically using the absorption value at 632 nm and utilizing the equation (absorbance at 632 nm/extinction coefficient of 0.036)=mg L^−1. The final concentration obtained after purification ranged from 18 to 30 mg/L. The nanoparticle ζ potential was measured using a Zetasizer (Nano ZS, Malvern Instruments) in samples suspended in 10 mM TES buffer pH 7.0, with 0.1 mM NaCl. The hydrodynamic size was measured using Zetasizer (Nano ZS, Malvern Instruments) in samples suspended in a 10 mM TES buffer at pH 7.
Characterization of Nanomaterials. All nanomaterials were characterized by absorbance UV-vis spectroscopy (UV-2600 Shimadzu), hydrodynamic size (Nano S), and ζ potential (Nano ZS). The nanomaterial ζ potential and hydrodynamic diameter were measured in a 10 mM TES buffer (pH 7.0). The ζ potential measurements were performed in 0.1 mM NaCl to improve conductivity and analyzed by the Hückel approximation model.^111 CD fluorescence emission was collected using a fluorescence spectrometer (Horiba PTI QM-400). The stepwise synthesis of TP-β-CDs was analyzed using FTIR (Thermo Nicolet 6700 FTIR).

In the case of `O=C(O)c1ccc2c(c1)C1(OC2=O)c2ccc(O)cc2Oc2cc(O)ccc21` [FDA, 6-carboxyfluorescein], in data set [1], the “localization of FDA in leaf mesophyll tissue” value is “localized near the plasma membrane”. In the case of “MASSMLSSATMVGGC [chloroplast targeting peptide for CD]”, in data set [2], the “charge of chloroplast targeting peptide” value is given as −0.1 mV.
